Laboratory results taken from patent US20070014803A1, “METHODS AND COMPOSITIONS FOR DIAGNOSIS AND TREATMENT OF VIRAL AND BACTERIAL INFECTIONS” (Arbor Vita Corporation, priority 2005, published 2007).
Where no end group is shown, it is not given here.

What was measured:
Assay in all cases: PRISM Matrix ELISA G assay, peptide titration
Assay type in all cases: binding
PDZ protein NSP = target: T1, PDZ protein NSP (Homo sapiens, UniProt Q92743); conditions: for binding to the PDZ protein NSP, in words: summary of the titrations
T1 construct: made in house
Experimental: (§1) (1) A PDZ-domain polypeptide is bound to a surface, e.g. a protein binding surface. In a preferred embodiment, a GST/PDZ fusion protein containing one or more PDZ domains is bound to a polystyrene 96-well plate. […] In one embodiment, the GST/PDZ fusion protein is bound via an anti-GST antibody that is coated onto the 96-well plate. Adequate binding to the plate can be achieved when: • a. 100 μL per well of 5 μg/mL goat anti-GST polyclonal antibody (Pierce) in PBS is added to a polystyrene 96-well plate (e.g., Nunc Polysorb) at 4° C. for 12 hours. • b. The plate is blocked by addition of 200 μL per well of PBS/BSA for 2 hours at 4° C. • c. The plate is washed 3 times with PBS. • d. 50 μL per well of 5 μg/mL GST/PDZ fusion protein) or, as a negative control, GST polypeptide alone (i.e. not a fusion protein) in PBS/BSA is added to the plate for 2 hours at 4° C. • e. the plate is again washed 3 times with PBS.
(§2) (2) Biotinylated PL peptides are allowed to react with the surface by addition of 50 μL per well of 20 μM solution of the biotinylated peptide in PBS/BSA for 10 minutes at 4° C., followed by an additional 20 minute incubation at 25° C. The plate is washed 3 times with ice cold PBS.
(§3) (3) The binding of the biotinylated peptide to the GST/PDZ fusion protein surface can be detected using a variety of methods and detectors. In an exemplary procedure, 100 μL per well of 0.5 μg/mL streptavidin-horse radish peroxidase (HRP) conjugate dissolved in BSA/PBS is added and allowed to react for 20 minutes at 4° C. The plate is then washed 5 times with 50 mM Tris pH 8.0 containing 0.2% Tween 20, and developed by addition of 100 μL per well of HRP-substrate solution (TMB, Dako) for 20 minutes at room temperature (RT). The reaction of the HRP and its substrate is terminated by addition of 100 μL per well of 1 M sulfuric acid, and the optical density (O.D.) of each well of the plate is read at […].
(§4) (4) Specific binding of a PL peptide and a PDZ domain polypeptide is determined by comparing the signal from the well(s) in which the PL peptide and PDZ domain polypeptide are combined, with the background signal(s). The background signal is the signal found in the negative control(s). Typically a specific or selective reaction is at least twice background signal, more typically more than 5 times background, and most typically 10 or more times the background signal. In addition, a statistically significant reaction involves multiple measurements of the reaction with the signal and the background differing by at least two standard errors, more typically four standard errors, and most typically six or more standard errors. Correspondingly, a statistical test (e.g. a T-test) comparing repeated measurements of the signal with -repeated measurements of the background will result in a p-value <0.05, more typically a p-value <0.01, and most typically a p-value <0.001 or less. As noted, in an embodiment of the “G” assay, the signal from binding of a given PL peptide to immobilized (surface bound) GST polypeptide alone is one suitable negative control (sometimes referred to as “B 1”). Because all measurement are done in multiples (i.e. at least duplicate) the arithmetic mean (or, equivalently, average) of several measurements is used in determining the binding, and the standard error of the mean is used in determining the probable error in the measurement of the binding. The standard error of the mean of N measurements equals the square root of the following: the sum of the squares of the difference between each measurement and the mean, divided by the product of (N) and (N−1). Thus, in one embodiment, specific binding of the PDZ protein to the platebound peptide is determined by comparing the mean signal (“mean S”) and standard error of the signal (“SE”) for a particular PL-PDZ combination with the mean B I.
(§5) Two different types of ELISA assays were used to test the HIV Peptides 1904 and 1905. […]

PDZ protein Rim2 = target: T2, PDZ protein Rim2 (Homo sapiens, UniProt Q9UQ26); conditions: for EC50: read-out: EC50 of binding to the PDZ protein Rim2, regular G assay titration, GST/PDZ fusion (FIG. 1C, FIG. 4C); for binding to the PDZ protein Rim2, in words: summary of the titrations
T2 construct: made in house
T2 sequence (Q9UQ26 632-757): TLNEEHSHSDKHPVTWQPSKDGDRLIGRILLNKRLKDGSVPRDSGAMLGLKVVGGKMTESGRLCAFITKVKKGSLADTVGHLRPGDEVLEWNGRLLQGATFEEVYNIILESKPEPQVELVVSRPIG
Experimental: as §1, §2, §3, §4, §5

[1] = target: T3, PDZ protein ZO-1 d2 (domain 2) (Homo sapiens, UniProt Q07157, DEL264-264); conditions: for EC50: read-out: EC50 of binding to the PDZ protein ZO-1 d2, regular G assay titration, GST/PDZ fusion (FIG. 1B, FIG. 4B); for binding to the PDZ protein ZO-1 d2, in words: summary of the titrations
T3 construct: made in house
T3 sequence (Q07157 with tags, fused parts or gaps DEL264-264): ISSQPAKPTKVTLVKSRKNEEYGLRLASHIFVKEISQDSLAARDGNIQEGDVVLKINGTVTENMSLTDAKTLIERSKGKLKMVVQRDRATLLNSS
Experimental: as §1, §2, §3, §4, §5

T1 sequence (Q92743 359-473): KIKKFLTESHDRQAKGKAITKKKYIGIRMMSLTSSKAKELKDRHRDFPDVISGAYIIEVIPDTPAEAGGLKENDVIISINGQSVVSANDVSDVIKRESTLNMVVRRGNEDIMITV

YGRKKRRQRRRRQGFERALL-OH [Peptide 1905] was tested, and the EC50 (PDZ protein NSP; read-out: EC50 of binding to the PDZ protein NSP, regular G assay titration, GST/PDZ fusion (FIG. 1D, FIG. 4D)) was 166 nM, the “binding to the PDZ protein NSP, in words” value (PDZ protein NSP) was “strong binding” and the EC50 (PDZ protein Rim2) was 182 nM. The “binding to the PDZ protein Rim2, in words” value (PDZ protein Rim2) was “strong binding”, the EC50 [1] was 184 nM and the “binding to the PDZ protein ZO-1 d2, in words” value [1] was “strong binding”.

For YGRKKRRQRRRRQGLERILL-OH [Peptide 1904], the “binding to the PDZ protein NSP, in words” value (PDZ protein NSP) was “strong binding”, the EC50 (PDZ protein Rim2) was 410 nM and the “binding to the PDZ protein Rim2, in words” value (PDZ protein Rim2) was “strong binding”. The EC50 [1] was 170 nM and the “binding to the PDZ protein ZO-1 d2, in words” value [1] was “strong binding”.
